Results reported in ChEMBL document CHEMBL1201862, “PubChem BioAssay data set” (2004).
The source made the active and inactive calls.

What was measured:
[1] = LGR2 antagonists, dose response, cell-based, HEK293, CRE-luciferase reporter, cherry pick, set 2 (AID 743343); assay type: functional;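 also: transfected cells were stimulated with diluted bursicon conditioned medium after compound addition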
[2] = MC4R antagonists, dose response, counter-screen for LGR2 antagonist project, cell-based, plate reader, cherry pick (AID 743444); assay type: functional;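 also: transfected HEK 293 cells stimulated with alpha-MSH peptide; potency of inhibitors of the alpha-MSH evoked signal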
[3] = A549 cell cytotoxicity, dose response, cytotoxicity control, plate reader, cherry-pick, antagonist series (AID 743412); assay type: functional, cell-based
[4] = HEK293 cell cytotoxicity, dose response, cytotoxicity control, plate reader, cherry-picked samples (AID 743446); assay type: functional, cell-based
HEK293 = assay: inhibitors of LMP1-driven NF-kB reporter, dose response, cell-based, HEK293, luciferase, cherry-pick (AID 588343); assay type: functional; conditions: Homo sapiens
[5] = HepG2 cell cytotoxicity, dose response, cytotoxicity control, plate reader, cherry-pick, antagonist series (AID 743416); assay type: functional, cell-based
[6] = inhibitors of SNCA 5'UTR-driven reporter translation, confirmation, H4 neuroglioma cells, luminescence (AID 1988); assay type: functional, cell-based
[7] = ADAM10 protease inhibitors, dose response, selectivity assay for ADAM17 exosite inhibitor project, biochemical, FRET peptide substrate, recombinant human ADAM10 (AID 743259);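 also: ADAM10 enzyme cleaving a FRET peptide substrate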
[8] = inhibitors of firefly luciferase expression or activity, dose response, H4 neuroglioma cells, luminescence (AID 1990); assay type: functional, cell-based
[9] = HEp-2 cell cytotoxicity, dose response, cytotoxicity control for RSV inhibitor project, HTS (AID 2410); assay type: functional; conditions: human respiratory syncytial virus
[10] = target: T1, Disintegrin and metalloproteinase domain-containing protein 17 (Homo sapiens, UniProt P78536); assay: exosite inhibitors of ADAM17, dose response, biochemical (AID 743260)
T1 sequence (P78536 whole entry, the tested form may be a part): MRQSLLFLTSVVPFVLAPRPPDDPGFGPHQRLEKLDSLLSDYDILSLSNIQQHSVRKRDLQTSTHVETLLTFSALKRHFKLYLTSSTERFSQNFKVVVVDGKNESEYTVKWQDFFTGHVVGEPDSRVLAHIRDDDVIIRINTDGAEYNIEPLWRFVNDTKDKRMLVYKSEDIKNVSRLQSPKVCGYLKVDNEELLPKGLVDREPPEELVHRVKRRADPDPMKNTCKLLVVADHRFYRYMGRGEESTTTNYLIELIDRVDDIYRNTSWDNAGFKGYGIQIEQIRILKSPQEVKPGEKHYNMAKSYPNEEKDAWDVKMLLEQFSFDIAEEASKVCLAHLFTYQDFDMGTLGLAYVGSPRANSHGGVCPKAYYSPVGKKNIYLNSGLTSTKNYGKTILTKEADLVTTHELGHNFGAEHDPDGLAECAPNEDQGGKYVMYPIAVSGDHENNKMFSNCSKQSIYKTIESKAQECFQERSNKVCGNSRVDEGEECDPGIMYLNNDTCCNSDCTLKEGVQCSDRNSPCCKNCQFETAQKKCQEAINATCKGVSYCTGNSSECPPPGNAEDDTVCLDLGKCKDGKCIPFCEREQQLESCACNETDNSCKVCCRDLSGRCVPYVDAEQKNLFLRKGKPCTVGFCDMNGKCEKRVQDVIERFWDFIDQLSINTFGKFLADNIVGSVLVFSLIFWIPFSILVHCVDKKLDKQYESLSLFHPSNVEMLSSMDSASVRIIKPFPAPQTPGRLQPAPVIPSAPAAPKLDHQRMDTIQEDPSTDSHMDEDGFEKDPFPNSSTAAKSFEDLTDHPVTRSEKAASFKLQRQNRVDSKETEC

[11] = Luminescence Cell-Based Dose Response HTS to Identify Inhibitors of 5'UTR Stem-Loop Driven Prion Protein mRNA Translation in H4 Neuroglioblastoma Cells. [Related pubchem assays: 1827 (Project Summary), 1813 (Primary HTS)]; assay type: functional
Vero [12] = assay: cells; assay type: functional; conditions: Chlorocebus sabaeus
Vero [13] = assay: cells; assay type: functional, cell-based; conditions: Chlorocebus sabaeus
Paired box protein Pax-8 = Paired box protein Pax-8 (Homo sapiens, UniProt Q06710); assay: inhibitors of PAX8-driven TPO luciferase reporter, dose response, RMG-I cells, cherry-pick (AID 687027); assay type: functional, cell-based;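 also: luciferase reporter driven by Pax8 target thyroperoxidase promoter measured by SteadyGlo luminescence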
Sequence of Paired box protein Pax-8 (Q06710 whole entry): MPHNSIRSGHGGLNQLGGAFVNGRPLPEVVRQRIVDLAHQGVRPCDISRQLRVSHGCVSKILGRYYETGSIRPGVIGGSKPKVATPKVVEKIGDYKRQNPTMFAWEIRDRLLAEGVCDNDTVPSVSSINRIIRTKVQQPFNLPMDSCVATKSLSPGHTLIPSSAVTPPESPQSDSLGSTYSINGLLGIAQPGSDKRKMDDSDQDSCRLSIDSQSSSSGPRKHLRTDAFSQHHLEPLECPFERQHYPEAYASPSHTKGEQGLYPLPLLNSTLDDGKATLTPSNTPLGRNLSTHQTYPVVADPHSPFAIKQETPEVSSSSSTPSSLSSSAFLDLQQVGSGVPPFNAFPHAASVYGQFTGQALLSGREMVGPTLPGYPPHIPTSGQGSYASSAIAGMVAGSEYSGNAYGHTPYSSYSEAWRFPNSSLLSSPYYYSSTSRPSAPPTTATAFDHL

[14] = target: T2, Microphthalmia-associated transcription factor (Homo sapiens, UniProt O75030); assay: TRPM1 promoter luciferase signal decrease, dose response, MITF inhibitor project, cell-based, SK-MEL-5, cherry-picked, set 3 (AID 493073); assay type: functional
T2 sequence (O75030 whole entry): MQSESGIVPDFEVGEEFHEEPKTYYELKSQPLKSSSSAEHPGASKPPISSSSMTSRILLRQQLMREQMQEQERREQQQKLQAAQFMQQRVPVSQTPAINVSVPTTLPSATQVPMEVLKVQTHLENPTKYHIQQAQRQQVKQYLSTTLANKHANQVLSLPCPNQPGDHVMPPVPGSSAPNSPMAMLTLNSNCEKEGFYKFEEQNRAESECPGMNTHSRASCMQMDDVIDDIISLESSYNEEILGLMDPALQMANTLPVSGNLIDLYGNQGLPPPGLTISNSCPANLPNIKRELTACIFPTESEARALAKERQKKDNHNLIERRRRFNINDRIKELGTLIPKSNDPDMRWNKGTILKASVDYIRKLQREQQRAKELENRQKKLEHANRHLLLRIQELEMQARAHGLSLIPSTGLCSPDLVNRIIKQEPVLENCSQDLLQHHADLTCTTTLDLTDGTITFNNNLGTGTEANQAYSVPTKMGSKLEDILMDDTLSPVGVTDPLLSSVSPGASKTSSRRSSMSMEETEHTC

[15] = target: T3, Rac GTPase-activating protein 1 (Homo sapiens, UniProt Q9H0H5); assay: MgcRacGAP GTPase-activating activity inhibitors, confirmation, biochemical, ADP Hunter fluorescence, primary and confirmatory (AID 624330); assay type: functional
T3 sequence (Q9H0H5 whole entry): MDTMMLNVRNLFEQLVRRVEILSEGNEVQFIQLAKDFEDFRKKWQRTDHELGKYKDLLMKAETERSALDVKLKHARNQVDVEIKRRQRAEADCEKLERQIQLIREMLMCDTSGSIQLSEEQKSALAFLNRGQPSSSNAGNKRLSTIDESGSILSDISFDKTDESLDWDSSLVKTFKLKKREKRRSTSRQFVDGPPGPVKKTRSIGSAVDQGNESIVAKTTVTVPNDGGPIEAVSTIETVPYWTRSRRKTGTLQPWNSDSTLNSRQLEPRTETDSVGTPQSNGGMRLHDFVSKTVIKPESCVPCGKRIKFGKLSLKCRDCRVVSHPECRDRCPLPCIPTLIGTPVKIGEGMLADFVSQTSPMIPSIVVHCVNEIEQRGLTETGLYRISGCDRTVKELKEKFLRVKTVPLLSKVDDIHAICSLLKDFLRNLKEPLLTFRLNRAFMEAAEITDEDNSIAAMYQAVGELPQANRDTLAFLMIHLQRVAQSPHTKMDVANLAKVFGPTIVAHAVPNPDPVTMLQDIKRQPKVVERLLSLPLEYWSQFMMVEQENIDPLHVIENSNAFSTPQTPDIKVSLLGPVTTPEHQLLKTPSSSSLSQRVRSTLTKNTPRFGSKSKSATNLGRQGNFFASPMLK

[16] = target: T4, Oxysterols receptor LXR-beta (Homo sapiens, UniProt P55055); assay type: functional, cell-based;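 also: Cell-based luminescence dose-response assay of agonist activity at LXR, run as a confirmatory counterscreen to a daf-12 agonist screen; HEK293 cells with Gal4-LXR fusion and GAL4-driven luciferase reporter; agonist potency from rising luciferase signal of a Gal4-LXR reporter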
T4 sequence (P55055 whole entry): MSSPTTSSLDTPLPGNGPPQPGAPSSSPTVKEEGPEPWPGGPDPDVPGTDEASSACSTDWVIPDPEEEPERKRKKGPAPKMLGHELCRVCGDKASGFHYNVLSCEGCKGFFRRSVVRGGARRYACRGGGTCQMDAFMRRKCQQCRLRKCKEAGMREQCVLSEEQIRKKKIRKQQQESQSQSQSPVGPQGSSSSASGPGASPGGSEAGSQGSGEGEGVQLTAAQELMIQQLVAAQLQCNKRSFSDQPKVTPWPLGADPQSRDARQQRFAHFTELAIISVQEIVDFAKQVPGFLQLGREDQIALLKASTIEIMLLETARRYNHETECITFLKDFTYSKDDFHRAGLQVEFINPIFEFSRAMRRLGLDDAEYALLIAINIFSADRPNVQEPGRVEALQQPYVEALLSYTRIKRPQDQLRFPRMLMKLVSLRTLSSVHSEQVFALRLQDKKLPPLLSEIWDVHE

cells [17] = assay: cells
[18] = ADAM10 inhibitors, peptide cleavage, dose response, biochemical, QFRET (AID 743254);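 also: ADAM10 enzyme with the DM2 quenched FRET peptide as substrate; EDANS fluorescence gain as the protease cuts the substrate; inhibitor potency against ADAM10 proteolytic activity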
[19] = target: T1, Disintegrin and metalloproteinase domain-containing protein 17; assay: ADAM17 protease inhibitors, dose response, counter-screen for ADAM10 exosite inhibitor project, biochemical, quenched FRET substrate (AID 743253)
[20] = cytotoxicity in COV434 cells, dose response, cytotoxicity control for PAX8 inhibitor project, cell-based, plate reader, dry powder, SA7 (AID 743145); assay type: functional
[21] = PAX5 activity inhibitors, dose response, selectivity assay for PAX8 inhibitor project, cell-based, plate reader, dry powder samples (AID 743047); assay type: functional;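 also: HEK293 cells carrying a Pax5 driven CD19 promoter luciferase reporter; potency of inhibitors that lower reporter luminescence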
INS1 = assay: beta cell apoptosis inhibitors, cytokine rescue, dose response, luminescence, retest (AID 449756); assay type: functional, cell-based; conditions: Rattus norvegicus, INS1;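 also: cell death triggered by IL-1 beta plus TNF-alpha plus IFN-gamma mixture; protective hits raise ATP signal compared with cytokine alone wells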
[22] = cytotoxicity dependent on PAX8, dose response, cell-based, plate reader, dry powder (AID 743049); assay type: functional
[23] = target: T5, Heat shock factor protein 1 (Mus musculus, UniProt P38532); assay: HSF1 potentiators in luciferase reporter cells, confirmation, cell-based, NIH3T3, luminescence, dose retest (AID 435004); assay type: functional;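 also: stress induced by proteasome inhibitor MG132 added 30 min after compound; luciferase reporter driven by HSF1 response element in NIH3T3 cells; actives raise luminescence as potentiators of the MG132 stress response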
T5 sequence (P38532 whole entry): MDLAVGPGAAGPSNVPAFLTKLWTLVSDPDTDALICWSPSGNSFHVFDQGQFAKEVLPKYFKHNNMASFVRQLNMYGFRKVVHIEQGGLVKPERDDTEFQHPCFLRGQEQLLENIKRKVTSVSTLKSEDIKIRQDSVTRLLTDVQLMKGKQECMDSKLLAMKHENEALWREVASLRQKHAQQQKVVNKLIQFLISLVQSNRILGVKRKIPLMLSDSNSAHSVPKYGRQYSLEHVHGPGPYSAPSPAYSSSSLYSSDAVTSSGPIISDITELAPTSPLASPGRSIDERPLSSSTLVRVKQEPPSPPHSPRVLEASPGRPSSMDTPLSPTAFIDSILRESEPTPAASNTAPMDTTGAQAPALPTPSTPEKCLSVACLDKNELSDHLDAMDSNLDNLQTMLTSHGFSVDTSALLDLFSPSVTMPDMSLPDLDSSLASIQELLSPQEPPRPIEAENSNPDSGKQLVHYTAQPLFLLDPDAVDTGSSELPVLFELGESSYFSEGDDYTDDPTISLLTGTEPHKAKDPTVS

[24] = NIH:OVCAR-3 ovarian cancer cell cytotoxicity, dose response, PAX8 inhibitor project, plate reader, dry powder samples (AID 743044); assay type: functional, cell-based
[25] = PAX2 cell-based inhibition, dose response, selectivity assay for PAX8 inhibitor project, plate reader, dry powder samples (AID 743048); assay type: functional;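 also: HEK293 cells carrying a WT1 promoter luciferase reporter driven by expressed Pax2; potency is for inhibition of Pax2 driven reporter signal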
[26] = IGROV1 ovarian cancer cell cytotoxicity, dose response, PAX8 inhibitor project, plate reader, dry powder samples (AID 743043); assay type: functional, cell-based; conditions: IGROV-1
[27] = HepG2 cell cytotoxicity, dose response, cytotoxicity control for Shn3 inhibitor project, CellTiter-Glo, cherry-picked (AID 624134); assay type: functional, cell-based
cells [28] = assay type: functional, cell-based
[29] = control 3'UTR Renilla luciferase suppression, dose response, counter-screen for Shn3 inhibitor project, cell-based, Clone20-Shn3RL, cherry-picked (AID 624133); assay type: functional
[30] = A2780 ovarian cancer cell cytotoxicity, dose response, cytotoxicity control, plate reader, dry powder samples (AID 743046); assay type: functional, cell-based
[31] = cytotoxicity in OVCAR4 cells, dose response, cytotoxicity control for PAX8 inhibitor project, cell-based, plate reader, dry powder, SA11 (AID 743150); assay type: functional; conditions: OVCAR-4
cells [32] = assay type: functional, cell-based; remark: listed apart in the source
[33] = cytotoxicity in COV362 ovarian cancer cells, dose response, cytotoxicity control for PAX8 inhibitor project, cell-based, plate reader, dry powder, SA12 (AID 743144); assay type: functional
[34] = cytotoxicity in OV-90 ovarian cancer cells, dose response, PAX8 inhibitor project, cell-based, plate reader, dry powder, SA8 (AID 743149); assay type: functional
[35] = Shn3 3'UTR reporter inhibitors, dose response, cell-based, Clone20 osteoblasts, firefly luciferase, cherry-picked (AID 624132); assay type: functional;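 also: firefly luciferase luminescence from reporter carrying the Shn3 3'UTR in osteoblasts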
[36] = A375 melanoma cell viability loss, dose response, counter-screen for MITF inhibitor project, CellTiter-Glo luminescence, dry powder, set 4 (AID 624364); assay type: functional, cell-based; conditions: A-375;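 also: A375 melanoma cells are MITF independent so this is a counter screen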
[37] = A375 melanoma cell cytotoxicity, dose response, counter-screen for MITF inhibitor project, CellTiter-Glo luminescence, dry powder, set 2 (AID 624489); assay type: functional, cell-based; conditions: A-375;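 also: actives are compounds lowering A375 viability meaning general cytotoxicity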

## Cc1ccnc(NC(=O)c2ccc(C(=O)c3ccccc3)cc2)c1
[1]
  AC50: 7.49 µM (active)
[2]
  AC50: 5.18 µM (active)
[3]
  AC50: > 52 µM (inactive)
[4]
  AC50: 31.2 µM (active)
HEK293
  AC50: 3.28 µM (active)
[5]
  AC50: > 52 µM (inactive)

## COc1cc(/C=N/NC(=O)c2cc(-c3ccccc3OC(C)C)nc3ccccc23)ccc1O
[6]
  EC50: 13.7 µM (active)
[7]
  IC50: > 69.5 µM (inactive)
[8]
  EC50: > 120 µM (not active)
[9]
  CC50: 29.6 µM (active)
[10]
  IC50: > 69.5 µM (inactive)
[11]
  EC50: > 120 µM (not active)
Vero [12]
  CC50: > 25 µM (active)
Vero [13]
  IC50: > 25 µM (active)

## O=C(O)c1cccc(N/N=C/c2cccs2)c1
Paired box protein Pax-8
  AC50: 6.14 µM (active)
[14]
  AC50: 1.51 µM (active)
[1]
  AC50: 1.87 µM (active)
[15]
  IC50: 75.3 µM (active)
[2]
  AC50: 2.41 µM (active)
[3]
  AC50: > 52 µM (inactive)
[16]
  EC50: > 67.5 µM (inactive)
Cells [17]
  EC50: > 67.5 µM (inactive)
[5]
  AC50: > 52 µM (inactive)

## CCC(=O)N(Cc1ccco1)c1nc(C(=O)Nc2ccc(Cl)cc2)c(C)s1
[18]
  IC50: > 69.5 µM (inactive)
[19]
  IC50: > 69.5 µM (inactive)

## O=C(Nc1ccc(OCC(F)(F)C(F)F)c(C(F)(F)F)c1)c1ccccc1O
Paired box protein Pax-8
  AC50: 7.06 µM (active)
[20]
  AC50: 56.2 µM (active)
[21]
  AC50: 6.09 µM (active)
INS1
  AC50: 4.78 µM (active)
[22]
  AC50: 17.8 µM (active)
[23]
  EC50: 67.4 µM (active)
[24]
  AC50: 14.8 µM (active)
[25]
  AC50: 3.62 µM (active)
[26]
  AC50: 48.2 µM (active)

## Cc1cc(NC(=O)CCCS(=O)(=O)c2nc(-c3cccs3)cc(C(F)(F)F)n2)no1
Paired box protein Pax-8
  AC50: 6.85 µM (active)
[20]
  AC50: 12.1 µM (active)
[27]
  AC50: 16.3 µM (active)
Cells [28]
  EC50: > 350 µM (not active)
[29]
  AC50: 6.46 µM (active)
[30]
  AC50: 10.3 µM (active)
[31]
  AC50: 20.8 µM (active)
[22]
  AC50: 18.6 µM (active)
Cells [32]
  EC50: > 350 µM (not active)
[33]
  AC50: 14.3 µM (active)
[34]
  AC50: 26.3 µM (active)
[24]
  AC50: 15.5 µM (active)
[25]
  AC50: 17.3 µM (active)
[26]
  AC50: 16.4 µM (active)
[35]
  AC50: 1.73 µM (active)

## O=C(NC1=C(c2ccc(OC(F)(F)F)cc2)C(=O)c2ccccc2C1=O)c1ccco1
[36]
  AC50: 32.2 µM (active)
[37]
  AC50: 21.1 µM (active)
